Test results published in ChEMBL document CHEMBL3603812, “Biarylsulfonamide CCR9 inhibitors for inflammatory bowel disease” (Bioorg Med Chem Lett, 2015).
pIC50: −log10 of the molar value. ≈ marks a conversion by molar mass, not a printed value.

Key:
[1] = target: T1, C-C chemokine receptor type 9 (Homo sapiens, UniProt P51686)
T1 sequence (P51686 whole entry): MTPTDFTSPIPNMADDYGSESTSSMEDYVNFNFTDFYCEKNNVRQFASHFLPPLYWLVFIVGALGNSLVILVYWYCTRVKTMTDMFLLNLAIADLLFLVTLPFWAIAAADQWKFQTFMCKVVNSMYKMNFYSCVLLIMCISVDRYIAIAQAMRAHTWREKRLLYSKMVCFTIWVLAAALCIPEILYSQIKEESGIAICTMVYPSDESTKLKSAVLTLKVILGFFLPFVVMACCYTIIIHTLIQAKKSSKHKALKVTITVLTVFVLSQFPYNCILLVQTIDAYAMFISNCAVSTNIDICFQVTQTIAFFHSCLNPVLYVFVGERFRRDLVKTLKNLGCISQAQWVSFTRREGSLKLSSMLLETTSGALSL
Description: Antagonist activity at CCR9 receptor (unknown origin) assessed as inhibition of TECK-induced calcium mobilization incubated for 10 mins prior to TECK induction

[2] = Solubility of the compound at pH 9; format: physicochemical; details: buffer
[3] = Oral bioavailability in mouse; format: ADME, organism-based; details: in vivo
[4] = Solubility of the compound at pH 7.4; format: physicochemical; details: buffer
[5] = Clearance in mouse liver microsomes; format: ADME; details: read-out: CLH
Mus musculus = assay: Dose normalized AUC in iv dosed mouse; format: ADME, organism-based; details: in vivo
[6] = Clearance in iv dosed mouse; format: ADME, organism-based; details: in vivo
[7] = Volume of distribution at steady state in iv dosed mouse; format: ADME, organism-based; details: in vivo, read-out: Vdss
[8] = Plasma protein binding in human; format: ADME, cell-free; details: read-out: PPB (converted)
[9] = Terminal half life in iv and po dosed mouse; format: ADME, organism-based; details: in vivo, read-out: beta t1/2 (converted)
[10] = Lipophilicity, log D of the compound; format: physicochemical; details: octanol/water

Row | Compound | pIC50 [1] | other results
1 | CC(C)(C)c1ccc(S(=O)(=O)Nc2ccc(Cl)cc2-c2ccccn2)cc1 | < 5.00 | –
2 | COc1ccnc(-c2cc(Cl)ccc2NS(=O)(=O)c2ccc(C(C)(C)C)cc2)c1 | 5.60 | –
3 | COc1cccnc1-c1cc(Cl)ccc1NS(=O)(=O)c1ccc(C(C)(C)C)cc1 | 6.02 | –
4 | CC(C)(C)c1ccc(S(=O)(=O)Nc2ccc(Cl)cc2-c2ncccc2N)cc1 | 7.02 | –
5 | CC(C)(C)c1ccc(S(=O)(=O)Nc2ccc(Cl)cc2-c2ncccc2CN)cc1 | 5.50 | –
6 | COCc1cccnc1-c1cc(Cl)ccc1NS(=O)(=O)c1ccc(C(C)(C)C)cc1 | 5.46 | –
7 | CC(C)(C)c1ccc(S(=O)(=O)Nc2ccc(Cl)cc2-c2c(O)ccc[n+]2[O-])cc1 | 6.31 | –
8 | CC(C)(C)c1ccc(S(=O)(=O)Nc2ccc(Cl)cc2-c2nccc(C(N)=O)c2O)cc1 | 7.28 | –
9 | CC(C)(C)c1ccc(S(=O)(=O)Nc2ccc(Cl)cc2-c2ncccn2)cc1 | 9.52 | –
10 | CC(C)(C)c1ccc(S(=O)(=O)Nc2ccc(Cl)cc2-c2ncncc2N)cc1 | 8.49 | –
11 | CC(C)(C)c1ccc(S(=O)(=O)Nc2ccc(Cl)cc2-c2nnccc2N)cc1 | 8.42 | –
12 | CC(C)(C)c1ccc(S(=O)(=O)Nc2ccc(Cl)cc2-c2nc(N)ncc2O)cc1 | 8.40 | –
13 | CNc1ncc(O)c(-c2cc(Cl)ccc2NS(=O)(=O)c2ccc(C(C)(C)C)cc2)n1 | 7.57 | –
14 | CC(C)(C)c1ccc(S(=O)(=O)Nc2ccc(Cl)cc2-c2ncnc(N)c2O)cc1 | 7.85 | –
15 | CN(C)c1ncnc(-c2cc(Cl)ccc2NS(=O)(=O)c2ccc(C(C)(C)C)cc2)c1O | 8.05 | –
16 | CC(C)(C)c1ccc(S(=O)(=O)Nc2ccc(Cl)cc2-c2nncc(N3CCOCC3)c2N)cc1 | 7.59 | –
17 | CC(C)(C)c1ccc(S(=O)(=O)Nc2ccc(Cl)cc2-c2ncnc(CO)c2O)cc1 | 7.96 | –
18 | CCc1ncnc(-c2cc(Cl)ccc2NS(=O)(=O)c2ccc(C(C)(C)C)cc2)c1O | 8.22 | –
19 | CC(C)(C)c1ccc(S(=O)(=O)Nc2ccc(Cl)cc2C(=O)c2cc[n+]([O-])cc2)cc1 [VERCIRNON] | – | logD [10]: 3.7; solubility [2]: 51 µg/mL (≈ 115 µM); bioavailability [3]: 10%; solubility [4]: 1.2 µg/mL (≈ 2.7 µM); CLint scaled [5]: 147 mL/min/kg; AUC/dose (Mus musculus): 0.56 µg·h/mL/mg/kg; clearance [6]: 33 mL/min/kg; Vd [7]: 0.83 L/kg; fraction unbound [8]: 0.009; half-life [9]: 1.3 h

Continued, in another order:

Row | pIC50 [1] | Compound | other results
20 | 7.54 | CC(C)(C)c1ccc(S(=O)(=O)Nc2ccc(Cl)cc2-c2ncccc2O)cc1 | –
21 | 7.05 | CC(C)(C)c1ccc(S(=O)(=O)Nc2ccc(Cl)cc2-c2ncccc2CO)cc1 | –
22 | 8.06 | CC(C)(C)c1ccc(S(=O)(=O)Nc2ccc(Cl)cc2-c2nccc(CO)c2O)cc1 | –
23 | 8.49 | CC(C)(C)c1ccc(S(=O)(=O)Nc2ccc(Cl)cc2-c2nccnc2N)cc1 | –
24 | 7.96 | CC(C)(C)c1ccc(S(=O)(=O)Nc2ccc(Cl)cc2-c2ncncc2O)cc1 | –
25 | 6.67 | CC(C)(C)c1ccc(S(=O)(=O)Nc2ccc(Cl)cc2-c2nc(NCCO)ncc2O)cc1 | –
26 | 7.60 | CNc1nccnc1-c1cc(Cl)ccc1NS(=O)(=O)c1ccc(C(C)(C)C)cc1 | –
27 | 6.38 | CCNc1nccnc1-c1cc(Cl)ccc1NS(=O)(=O)c1ccc(C(C)(C)C)cc1 | –
28 | 7.47 | CC(C)(C)c1ccc(S(=O)(=O)Nc2ccc(Cl)cc2-c2nccnc2NCCO)cc1 | solubility [2]: 1100 µg/mL (≈ 2390 µM); bioavailability [3]: 38%; solubility [4]: 240 µg/mL (≈ 521 µM); CLint scaled [5]: 49 mL/min/kg; AUC/dose (Mus musculus): 0.65 µg·h/mL/mg/kg; clearance [6]: 26 mL/min/kg; Vd [7]: 1.1 L/kg; fraction unbound [8]: 0.016; half-life [9]: 1.2 h
29 | 6.21 | CC(C)(C)c1ccc(S(=O)(=O)Nc2ccc(Cl)cc2-c2nccnc2NCCCO)cc1 | –
30 | 5.44 | CN(C)CCNc1nccnc1-c1cc(Cl)ccc1NS(=O)(=O)c1ccc(C(C)(C)C)cc1 | –
31 | 6.09 | CC(C)(C)c1ccc(S(=O)(=O)Nc2ccc(Cl)cc2-c2nccnc2NCC(=O)O)cc1 | –
32 | 6.57 | Cc1cnc(-c2cc(Cl)ccc2NS(=O)(=O)c2ccc(C(C)(C)C)cc2)c(NCCO)n1 | –
33 | 6.00 | CNc1cnc(-c2cc(Cl)ccc2NS(=O)(=O)c2ccc(C(C)(C)C)cc2)c(NCCO)n1 | –
34 | 6.15 | CC(C)(C)c1ccc(S(=O)(=O)Nc2ccc(Cl)cc2-c2nc(Cl)cnc2NCCO)cc1 | –
